The nature of this data set: Anti-hygroscopic and hygroscopic property by dynamic vapor sorption (DVS). Format: physicochemical. The conditions noted are these: raw powders; DVS 37° C., 50 to 95% RH. The procedure: For each SFD preparation prepared in Example 1 and each raw powder (Leu, Man, Tre, FlNa) in compositions, using a Dynamic Vapor Sorption measuring instrument (DVS: Dynamic Vapor Sorption; DVS advantage, Surface Measurement Systems), anti-hygroscopic property and hygroscopic growth from inhalation to the respiratory tract and deep lungs in high humidity were evaluated.
By a DVS, the mass change of a sample filled on one side of the balance-type measuring unit due to the adsorption and desorption of water in a set temperature and humidity environment can be monitored on a second scale. Regarding the setting of conditions for moisture absorption growth evaluation, to reproduce the temperature and humidity environment changes until the powder fine particles reach the deep lungs, the environment before inhalation was set to “temperature: 37° C., relative humidity (RH): 50% (absolute humidity: […])” and the lung environment after inhalation was set to “temperature: 37° C., 95% RH (absolute humidity: 41.62 g/m^3)”.

Molecules are shown by their SMILES.

`CC(C)C[C@H](N)C(=O)O` [Leu, L-leucine]: the mass change rate result is on record as “about 0.08%”.

The molecule `OC[C@@H](O)[C@@H](O)[C@H](O)[C@H](O)CO` [Man, D-(−)-mannitol] had a mass change rate of around 0.29%.

The molecule `OC[C@H]1O[C@H](O[C@H]2O[C@H](CO)[C@@H](O)[C@H](O)[C@H]2O)[C@H](O)[C@@H](O)[C@@H]1O` [Tre, D-(+)-trehalose] came in with a mass change rate of around 22%.

For the origin of these results see patent US20210386665A1, “INHALATION POWDER MEDICINE, EVALUATION METHOD THEREOF, AND USE THEREOF” (MEIJO UNIVERSITY EDUCATIONAL FOUNDATION, priority 2018, published 2021).
